These results are taken from patent publication US6861391B1, “Trifluoromethyl-substituted spirocyclic ketoenols” (Bayer Aktiengesellschaft, priority 1999, dated 2005).

In one series the test system is Myzus persicae. Put plainly: Critical concentration test/root-systemic action. Type of series: in vivo. As to conditions: 1.25 ppm in soil; root-systemic, broad beans; populated after 7 days, evaluated after a further 8 days. How it is done: Critical concentration test/root-systemic action Test insect: Myzus persicae Solvent: 4 parts by weight of acetone Emulsifier: 1 part by weight of alkylaryl polyglycol ether To produce a suitable preparation of active compound, 1 part by weight of active compound is mixed with the stated amount of solvent, the stated amount of emulsifier is added and the concentrate is diluted with water to the desired concentration. The preparation of active compound is mixed intimately with the soil. The concentration of the active compound in the preparation is virtually immaterial, only the amount by weight of active compound per volume unit of soil, which is stated in ppm […], being decisive. The treated soil is filled into 250 ml pots and pregerminated broad beans are planted in these. Thus, the active compound can be taken up by the plant roots from the soil and then transported into the leaves. To assess the root-systemic effect, the plants are populated with the above-mentioned test animals after 7 days. After a further 8 days, evaluation is carried out by counting or estimating the number of dead animals. The root-systemic action of the active compound is derived from the number of animals killed. It is 100% if all test animals have been killed and 0% when the number of test insects that are still alive is the same as for the untreated control.

Series [1] concerns peach aphids (Myzus persicae). As to the kind of experiment: Myzus test (cabbage leaf dip). Type of series: in vivo. Particulars: cabbage leaves dipped. How it is done:
Myzus test Solvent: 7 parts by weight of dimethylformamide Emulsifier: 1 part by weight of alkylaryl polyglycol ether To produce a suitable preparation of active compound, 1 part by weight of active compound is mixed with the stated amounts of solvent and emulsifier, and the concentrate is diluted with emulsifier-containing water to the desired concentration. Cabbage leaves (Brassica oleracea) which are heavily infested by peach aphids (Myzus persicae) are treated by being dipped into the preparation of active compound of the desired concentration. After the desired period of time, the kill in % is determined. 100% means that all aphids have been killed; 0% means that none of the aphids have been killed.

For series [2], the system named is larvae of the mustard beetle (Phaedon cochleariae). As to the kind of experiment: Phaedon larvae test (cabbage leaf dip). Type of series: in vivo. Particulars: 100 ppm active compound, cabbage leaves dipped. How it is done:
Phaedon larvae test Solvent: 7 parts by weight of dimethylformamide Emulsifier: 1 part by weight of alkylaryl polyglycol ether To produce a suitable preparation of active compound, 1 part by weight of active compound is mixed with the stated amounts of solvent and emulsifier, and the concentrate is diluted with emulsifier-containing water to the desired concentration. Cabbage leaves (Brassica oleracea) are treated by being dipped into the preparation of active compound of the desired concentration and are populated with larvae of the mustard beetle (Phaedon cochleariae) while the leaves are still moist. After the desired period of time, the kill in % is determined. 100% means that all beetle larvae have been killed; 0% means that none of the beetle larvae have been killed.

The next series has as its system Meloidogyne incognita. Put plainly: Meloidogyne test (gall formation on lettuce roots). Type of series: in vivo. As to conditions: 20 ppm active compound, nematicidal action by gall formation on lettuce. The protocol:
Meloidogyne test Solvent: 7 parts by weight of dimethylformamide Emulsifier. 1 part by weight of alkylaryl polyglycol ether To produce a suitable preparation of active compound, 1 part by weight of active compound is mixed with the stated amounts of solvent and emulsifier, and the concentrate is diluted with water to the desired concentration. Vessels are filled with sand, solution of active compound, Meloidogyne incognita egg/larvae suspension and lettuce seeds. The lettuce seeds germinate and the plants develop. On the roots, galls develop. After the desired period of time, the nematicidal action is determined in % by the formation of galls. 100% means that no galls have been found; 0% means that the number of galls on the treated plants corresponds to that of the untreated control.

As for `Cc1cc(C)c(C2=C(O)C3(CCC(C(F)(F)F)CC3)NC2=O)c(C)c1` (stereo not shown) [Example I-1-a-1], the “Kill rate in % at active compound concentrations in ppm” value with Myzus persicae came out at 1.25 ppm = 100%.
In turn, `Cc1ccc(C)c(C2=C(O)C3(CCC(C(F)(F)F)CC3)NC2=O)c1` (stereo not shown) [Example I-1-a-2] registered a melting point of 245 °C.
As to `Cc1cc(C)c(C2=C(O)C3(CCC(C(F)(F)F)CC3)NC2=O)cc1C` (stereo not shown) [Example I-1-a-3], the melting point was 175 °C. In addition, the “Kill rate in % after 6 d” value in series [1] (1000 ppm active compound) is given as 80%.
The compound `Cc1cc(Cl)c(C2=C(O)C3(CCC(C(F)(F)F)CC3)NC2=O)c(Cl)c1` (stereo not shown) [Example I-1-a-4] registered a melting point greater than 250 °C.
Turning to `Cc1cc(C)c(C2=C(O)C3(CCC(C(F)(F)F)CC3)NC2=O)c(C)c1C` (stereo not shown) [Example I-1-a-5], the melting point was greater than 250 °C. The “Kill rate in % after 6 d” value in series [1] (100 ppm active compound) is 100%.
With `Cc1cc(Cl)cc(C)c1C1=C(O)C2(CCC(C(F)(F)F)CC2)NC1=O` (stereo not shown) [Example I-1-a-6], the melting point was greater than 248 °C.
Take `Cc1ccc(Br)c(C2=C(O)C3(CCC(C(F)(F)F)CC3)NC2=O)c1` (stereo not shown) [Example I-1-a-7]: the melting point was found to be 212 °C.
Turning to `Cc1cc(C)c(C2=C(OC(=O)C(C)C)C3(CCC(C(F)(F)F)CC3)NC2=O)c(C)c1` (stereo not shown) [Example I-1-b-1], the “Kill rate in % after 6 d” value in series [1] (1000 ppm active compound) amounted to 95%. The “Kill rate in % after 7 d” value in series [2] is recorded as 100%.
Take `CCOC(=O)OC1=C(c2c(C)cc(C)cc2C)C(=O)NC12CCC(C(F)(F)F)CC2` (stereo not shown) [Example I-1-c-1]: in series [1] (1000 ppm active compound), the “Kill rate in % after 6 d” value worked out at 100%.
As for `Cc1ccc(C)c(C2=C(O)C3(CCC(C(F)(F)F)CC3)OC2=O)c1` (stereo not shown) [Example I-2-a-1], the “Kill rate in % after 7 d” value in the series with Meloidogyne incognita came to 90%.
With `Cc1cc(C)c(C2=C(O)C3(CCC(C(F)(F)F)CC3)OC2=O)cc1C` (stereo not shown) [Example I-2-a-2], the melting point is 212 to 214 °C. Also, the “Kill rate in % after 6 d” value in series [1] (1000 ppm active compound) is recorded as 100%.
Regarding `Cc1cc(C)c(C2=C(O)C3(CCC(C(F)(F)F)CC3)OC2=O)c(C)c1C` (stereo not shown) [Example I-2-a-3], the melting point lay within 159 to 161 °C.
